What was measured:
Format in all cases: cell-based, human
[1] = test system: miR-21-3p; assay: qRT-PCR microRNA assay in HepG2 cells; settings: HepG2, 40 μM berberine
Experimental: (§1) The human HepG2 cells and HEK 293T cells used in the following examples were originally obtained from the American Tissue Culture Collection (ATCC, USA). The human HCC HepG2 cell line was cultured in Minimum Essential Medium Eagle (Sigma) supplemented with 10% fetal bovine serum (FBS) (Invitrogen), 2.2 g/L of sodium bicarbonate (Sigma), 0.1 mM of non-essential amino acids (Caisson), 1 mM of sodium pyruvate (Invitrogen), and 10 of ml/L penicillin-streptomycin-amphotericin solution (Biological Industries). Human HEK-293T cells were maintained in high-glucose Dulbecco's modified eagle medium (Invitrogen) supplemented with 10% FBS and 3.7 g/L of sodium bicarbonate (Sigma). Both cell lines were cultured at 37° C. and 5% CO2. A 50 mM stock solution of berberine chloride (Sigma-Aldrich) was prepared in dimethyl sulfoxide (DMSO). Cells were treated with 40 μM of berberine chloride or 0.08% DMSO as the control. For induction of lipid droplets formation in cultured cells, 200 μM of oleic acid (Sigma-Aldrich) was added into the culture medium for 24 h. Total RNA was extracted using a TRIZOL reagent (Invitrogen) according to the manufacturer's protocol. The total RNA quantity was measured using a NanoDrop ND-1000 spectrophotometer (Nanodrop Technologies). The total RNA quality and integrity were assayed using an Agilent 2100 bioanalyzer with an RNA 6000 nano kit (Agilent Technologies). […] The microRNA expression levels were normalized to RNU6B levels.

[2] = test system: miR-21-5p; assay: qRT-PCR microRNA assay in HepG2 cells; settings: HepG2, 40 μM berberine
Experimental: as §1

[3] = test system: exon 23 of ACACB; assay: Reporter examination of miR-21-3p and ACACB (technology similar to Example 6)
Experimental: (§2) The HEK-293T and HepG2 cells were seeded at a density of 5×10^4 cells per well in a 24-well culture plate the day before transfection. The HEK-293T and HepG2 cells were tri-transfected with (1) any one of the above-mentioned pMIR-REPORT-3′ UTR construction (300 ng), (2) the control Renilla luciferase reporter plasmid pRL-TK from Promega (10 ng), and (3) 50 nM of hsa-miR-21-3p mimic or negative-control mimic by using the Lipofectamine 2000 transfection reagent (Invitrogen) according to the manufacturer's instructions. Luciferase assays were performed after transfection for 48 h by using the Dual Luciferase reporter assay kit (Promega) and the Paradigm detection platform (Beckman) according to the manufacturer's protocol. The firefly luciferase activity was normalized relative to the Renilla luciferase activity.

[4] = test system: ACACA mRNA; assay: mRNA stability assay
[5] = test system: MAT2A 3′ UTR; assay: Dual luciferase reporter assay in HEK 293T cells
Experimental: (§3) Full-length 3′ UTRs of MAT2A and MAT2B were amplified from the genomic DNA of HepG2 cells through PCR.
(§4) The PCR products were then cloned into the pMIR-REPORT Luciferase miRNA Expression Reporter Vector (Invitrogen), and all inserted sequences in the 3′ UTR constructs were checked using the ABI PRISM DNA sequencer.
(§5) The mutagenesis of the target sequences of hsa-miR-21-3p in MAT2A and MAT2B 3′ UTRs was performed using the QuikChange site-directed mutagenesis kit (Agilent) according to the manufacturer's standard protocol.
(§6) All mutated sequences, including Site 1, Site 2 and the double mutation of the MAT2A and the 3′ UTR mutant construct of MAT2B, were checked through DNA sequencing.
as §2

[6] = test system: MAT2B 3′ UTR; assay: Dual luciferase reporter assay in HEK 293T cells
Experimental: as §3, §4, §5, §6, §2

[7] = wild-type 3′ UTR, 50 nM mimic, 48 h

Compound	miR-21-3p level increase (qRT-PCR) ([1]; 1 h vs untreated control)	miR-21-3p level increase (qRT-PCR) ([1]; 2 h (peak) vs untreated control)	miR-21-3p level increase (qRT-PCR) ([1]; 8 h vs untreated control)	miR-21-5p level increase (qRT-PCR) ([2]; 2 h)	miR-21-5p expression change (qRT-PCR) ([2]; 4 h and 8 h)	suppression of ACACB expression by binding exon 23 [3]	half-life of ACACA mRNA [4]	luciferase reporter expression decrease, Site 1 mutated MAT2A 3′ UTR ([5]; Site 1 (+180-200) mutated)	luciferase reporter expression decrease, MAT2A 3′ UTR [5, 7]	luciferase reporter expression change, mutated MAT2B 3′ UTR ([6]; seed match (+399-418) mutated)	luciferase reporter expression decrease, MAT2B 3′ UTR [6, 7]
COc1ccc2cc3[n+](cc2c1OC)CCc1cc2c(cc1-3)OCO2 [berberine]	2.1 fold	3.5 fold	2.8 fold	2 fold	no significant differences	–	–	–	–	–	–
hsa-miR-21-3p (CAACACCAGUCGAUGGGCUGU; listed as RNA, chemistry not given here) [miR-21-3p mimic]	–	–	–	–	–	1.4 fold	reduced the half-life of ACACA mRNA	1.5 fold	1.6 fold	remained unchanged	2.3 fold
